Laboratory results: PubChem BioAssay (NCI)
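These data come from cells grown in 96-well plates and exposed to compound for 48 hours at five concentrations. TGI: concentration producing complete growth inhibition.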 Where a SMILES comes first, the peptide text is derived from it. [ ]: non-standard residue; d: D form. The star is where a group is joined. X28 = COC1=CC(=O)N(C(=O)[C@@H](O*)C(C)C)[C@H]1Cc1ccccc1; Bn2Val = CC(C)[C@@H](C(=O)*)N(Cc1ccccc1)Cc1ccccc1; NMeV = CN[C@H](C(=O)O)C(C)C; dNMeA = CN[C@H](C)C(=O)O

Assays:
Experiment in all cases: NCI tumour cell line growth inhibition, 48 h
[1] = system: HOP-62 NSCLC
[2] = system: DMS 273 small cell lung
[3] = system: A549 NSCLC
[4] = system: CAKI-1 renal
[5] = system: ACHN renal
[6] = system: DMS 114 small cell lung
[7] = system: DLD-1 colon
[8] = system: MALME-3M melanoma
[9] = system: SNB-78 CNS
[10] = system: SK-MEL-2 melanoma
[11] = system: MDA-MB-435
[12] = system: BT-549 breast

| SMILES | TGI [1] [µM] | TGI [2] [µM] | TGI [3] [µM] | TGI [4] [µM] | TGI [5] [µM] | TGI [6] [µM] | TGI [7] [µM] | TGI [8] [µM] | TGI [9] [µM] | TGI [10] [µM] | TGI [11] [µM] | TGI [12] [µM] |
| --- | --- | --- | --- | --- | --- | --- | --- | --- | --- | --- | --- | --- |
| C[N+](C)=c1ccc2nc3c(ccc4ccccc43)oc-2c1 | 34.2 | 39.2 | 37.1 | 28.9 | 26.7 | 54.4 | 21.1 | 26.1 | 20.8 | 36.6 | – | – |
| C[N+](C)(C)CCOC(=O)/C=C/c1cnc[nH]1 | > 500 | > 500 | > 500 | > 500 | – | > 500 | > 500 | > 500 | > 500 | > 500 | – | – |
| N=S(=O)(c1ccccc1)c1ccccc1 | > 100 | – | > 100 | > 100 | > 100 | > 100 | > 100 | > 100 | > 100 | > 100 | – | – |
| Brc1c2nc3ccccc3nc2n2ccc3ccccc3c12 | > 100 | > 100 | > 100 | > 100 | > 100 | > 100 | > 100 | > 100 | > 100 | > 100 | – | – |
| Nc1ccc2nc(Nc3ccc(Cl)c(Cl)c3)cnc2c1 | 36.2 | 34.1 | 41.9 | > 100 | 91.9 | 24.5 | > 100 | 35.3 | > 100 | 37.7 | – | – |
| N=c1n(CC(=O)NC23CC4CC(CC(C4)C2)C3)c2ccccc2n1CC(=O)NC12CC3CC(CC(C3)C1)C2 | 3.48 | 3.35 | – | 24.3 | 3.94 | 3.67 | 3.5 | 3.04 | 6.38 | 30.9 | – | – |
| C=C1C2C[C@@H]3OC4CC5O[C@]6(CC5OC4C(C)C3OC(=O)CC3CC[C@@H]4OC5C7OC8C[C@](CCC9CC(=C)[C@H](CCC(C[C@H]1C)O2)O9)(OC7C4O3)O[C@@H]85)C[C@@H]1O[C@@]2(CC(C)[C@@H]3OC(CC(=O)CCO)C(O)C[C@@H]3O2)CC(C)[C@@H]1O6 (some centres undefined) | 0.0034 | < 0.001 | 1.28 | 0.877 | 1.71 | – | 1.24 | 0.189 | 1.98 | < 0.001 | – | – |
| C/C=C/c1cc2c(c(=O)o1)C(=O)[C@@H](O)[C@H](C)O2 | 60.8 | 29.7 | 34.3 | 31.3 | – | 19.1 | 20 | 32.5 | 42 | 34.2 | – | – |
| COc1cc(S(=O)(=O)Nc2ccc(-c3csc(N4C(=O)C(Cl)C4c4cccc(Oc5ccccc5)c4)n3)cc2)ccc1Cl (centres undefined) | > 100 | – | > 100 | 41.8 | 57.1 | – | – | > 100 | – | 76.7 | 39.7 | 81.5 |
| CO[C@H]1CC[C@]2(C)C3=CC[C@@]4(C)C(CC[C@@H]4C(C)CC[C@@H](C)C(C)C)C(=CCC2C1)O3 (some centres undefined) | > 25 | > 25 | > 25 | > 25 | > 25 | > 25 | > 25 | > 25 | > 25 | > 25 | – | – |
| c1ccc(C(c2cccc3c2ccc2ccccc23)C(c2ccccc2)c2cccc3c2ccc2ccccc23)cc1 (centres undefined) | > 100 | – | > 100 | > 100 | > 100 | – | – | > 100 | – | > 100 | > 100 | > 100 |
| C/C(=N/NC(=S)N(C)C)c1ccccc1O | > 100 | – | > 100 | > 100 | > 76.5 | – | – | > 76.1 | – | > 100 | > 100 | > 100 |
| CCOC(=O)C1(C#N)C2(C#N)C(N)=NC(ON=C(C)C)(ON=C(C)C)C12C#N (centres undefined) | > 100 | – | > 100 | > 100 | > 100 | – | – | > 100 | – | > 100 | > 100 | > 100 |
| Nc1ncnc2c1sc(=S)n2-c1ccccc1 | > 100 | > 100 | > 100 | > 100 | > 100 | > 100 | > 100 | > 100 | > 100 | > 100 | – | – |
| COc1cc(NS(C)(=O)=O)ccc1NCc1cnc2ccc3[nH]cccc3c12 | 55.6 | – | > 96.3 | > 72.7 | 69.2 | – | – | 43.4 | – | 39.4 | 43.8 | 52.6 |
| N#CCCN(CCC#N)c1ccc(/C=C2\SC(=S)NC2=O)cc1 | > 100 | – | > 100 | 59.7 | > 100 | – | – | > 100 | – | > 100 | > 100 | 84.3 |
| Nc1ncnc2c1ncn2CCCC(c1ccccc1)P(=O)(O)O (centres undefined) | – | > 100 | > 100 | 30.7 | > 100 | > 100 | > 100 | > 100 | > 100 | > 100 | – | – |

| SMILES | TGI [1] [µM] | TGI [2] [µM] | TGI [3] [µM] | TGI [4] [µM] | TGI [5] [µM] | TGI [6] [µM] | TGI [7] [µM] | TGI [8] [µM] | TGI [9] [µM] | TGI [10] [µM] | TGI [11] [µM] | TGI [12] [µM] |
| --- | --- | --- | --- | --- | --- | --- | --- | --- | --- | --- | --- | --- |
| O=C(NNS(=O)(=O)c1ccc(Br)cc1)c1ccc(Cl)cc1NC(=O)C12CC3CC(CC(C3)C1)C2 | 47.8 | – | 21.4 | 56.6 | 29.7 | – | – | 35.3 | – | 25.3 | 25.8 | 34.8 |
| Nc1ncnc2c1ncn2C1OC(CO)C(O)C1NS(=O)(=O)c1ccccc1 (centres undefined) | > 100 | – | > 100 | > 100 | > 100 | – | – | > 100 | – | > 100 | > 100 | > 100 |
| COC(=O)[C@H]1[C@@H](O)[C@@]2(O)c3c(OC)cc(OC)cc3O[C@@]2(c2ccc3c(c2)OCO3)[C@@H]1c1ccccc1 | 0.68 | – | 0.5 | 0.264 | 0.235 | – | – | 9.69 | – | 0.45 | > 50 | > 50 |
| O=C(/C=C/c1ccc2c(c1)OCO2)NCCc1ccco1 | > 100 | – | > 100 | > 100 | > 100 | – | – | > 100 | – | > 100 | > 100 | > 100 |
| CCCCCCCCCCCCCCCCNCC(O)CN (centres undefined) | 33.4 | 14.3 | 10.2 | 30 | – | 21 | 3.66 | 30.2 | 5.83 | 36.2 | – | – |
| NC(=S)Nc1ccc2c(c1)oc1ccccc12 | > 100 | – | > 100 | > 100 | > 100 | – | – | > 100 | – | > 100 | > 100 | > 100 |
| O=C1CCCCC/C1=C\c1cccc([N+](=O)[O-])c1 | > 100 | – | > 100 | > 100 | > 100 | – | – | 72.4 | – | > 100 | > 100 | 72.8 |
| N#C/C=c1/c2ccccc2n2nc3ccccc3c12 | 44.4 | – | > 100 | > 100 | 27.9 | – | – | > 100 | – | > 100 | > 100 | > 100 |
| C=C1C(=O)[C@]23C[C@H]1C[C@@H](O)[C@H]2[C@]1(COC3=O)[C@@H](OC(C)=O)CC[C@@](C)(COC(C)=O)[C@H]1C=O | > 50 | – | > 50 | 18.8 | > 50 | – | – | 27 | – | > 50 | > 50 | > 50 |
| COc1cc(N)c2[nH]c3c(C)ccc(C)c3c2c1 | > 100 | > 100 | > 100 | > 100 | > 100 | > 100 | > 100 | > 100 | > 100 | > 100 | – | – |
| COC1=CC(=O)N(C(=O)[C@@H](OC(=O)[C@@H](C)N(C)C(=O)[C@@H]2CCCN2C(=O)[C@H](C(C)C)N(C)C(=O)[C@@H](NC(=O)[C@H](C(C)C)N(Cc2ccccc2)Cc2ccccc2)C(C)C)C(C)C)[C@H]1Cc1ccccc1 (Bn2Val-V[NMeV]P[dNMeA]-X28) | > 100 | – | > 100 | > 100 | > 100 | – | – | > 100 | – | > 100 | > 100 | > 100 |
| COc1ccc(C(=O)c2c(-c3ccccc3NC(=O)C(F)(F)F)[nH]c3ccccc23)cc1 | 22.1 | – | 20.2 | 28.6 | 11.6 | – | – | 30.5 | – | 14.9 | 25.5 | 29 |
| CC(=O)Oc1c2c(c(OC(C)=O)c3c1n(C(C)=O)c1ccccc1n3C(C)=O)n(C(C)=O)c1ccccc1n2C(C)=O | 53.5 | 10.6 | 24.2 | 55.1 | 25.4 | 7.96 | 11.8 | 7.56 | – | 24 | – | – |
| COc1ccc(C2S/C(=C\c3cccc(OC)c3)C(=O)N2NC(=O)Cc2ccccc2)cc1 (centres undefined) | > 100 | > 100 | > 100 | > 100 | > 100 | – | > 100 | > 100 | – | > 100 | – | – |
| CC(=O)NNC(=S)/N=C\c1c(O)c2ccccc2oc1=O | > 100 | – | > 100 | > 100 | > 100 | – | – | > 100 | – | > 100 | > 100 | > 100 |
| COC1=CC(=O)c2c(cc(COP(N)(=O)N(CCCl)CCCl)n2C)C1=O (centres undefined) | 7.88 | – | 4.31 | < 0.0478 | 1.18 | – | – | 3.15 | – | 4.12 | 3.2 | 2.14 |
